Experiments:
[1] = test system: platelet aggregation in platelet-enriched plasma of healthy humans; assay: BORN-Test, collagen-induced platelet aggregation; type: cell-based; conditions: Homo sapiens, vs control, read-out: % decrease in aggregation; for inhibition at 20 µM: 2 × 10^-5 Mol/liter; for inhibition at 2 µM: 2 × 10^-6 Mol/liter; for inhibition at 100 µM: 1 × 10^-4 Mol/liter; for inhibition at 10 µM: 1 × 10^-5 Mol/liter
Method: (a) BORN-Test, Collagen-Induced Aggregation
The platelet aggregation was measured according to the method of BORN and CROSS (J. Physiol. 170, pp. 397 [1964]) in platelet-enriched plasma of healthy humans. The decrease in the optical density of the platelet suspension after addition of collagen was measured and registered photometrically. From the angle of inclination of the density curve the rate of aggregation can be determined. […] The quantity of collagen was chosen so that it produced an irreversible control curve.
The indicated values refer to the optical density and signify the percentage change in the light transmission (=% decrease in aggregation) under the influence of the test compound in comparision to the control.
Commercial collagen manufactured by Hormon-Chemie, Munich, Germany, was used.

male and female mice = assay: Determination of acute toxicity, oral administration; type: in vivo; conditions: 1 000 mgm/kg oral, 10 mice; for Dead animals within observation period 1 day: within 1 day; for Dead animals within observation period 7 days: within 7 days; for Dead animals within observation period 14 days: within 14 days
Method: (b) Determination of Acute Toxicity
The acute toxicity was determined in male and female mice after oral administration of the test compound as a suspension in tylose.

| SMILES | inhibition at 20 µM [1] [%] | inhibition at 2 µM [1] [%] | Dead animals within observation period 1 day (male and female mice) | Dead animals within observation period 7 days (male and female mice) | Dead animals within observation period 14 days (male and female mice) | inhibition at 0.2 µM ([1]; 2 × 10^-7 Mol/liter) [%] | inhibition at 50 µM ([1]; 5 × 10^-5 Mol/liter) [%] | inhibition at 5 µM ([1]; 5 × 10^-6 Mol/liter) [%] | inhibition at 100 µM [1] [%] | inhibition at 10 µM [1] [%] | inhibition at 1 µM ([1]; 1 × 10^-6 Mol/liter) [%] |
| --- | --- | --- | --- | --- | --- | --- | --- | --- | --- | --- | --- |
| CN1C(C(=O)Nc2nccs2)=C(O)c2c(c3ccccc3n2C)S1(=O)=O [A, 2,5-dihydro-2,5-dimethyl-4-hydroxy-N-(2-thiazolyl)-1,2-thiazino[5,6-b]indole-3-carboxamide-1,1-dioxide] | 96 | 81 | 0 | 0 | 0 | – | – | – | – | – | – |
| Cc1csc(NC(=O)C2=C(O)c3c(c4ccccc4n3C)S(=O)(=O)N2C)n1 [B, 2,5-dihydro-2,5-dimethyl-4-hydroxy-N-(4-methyl-2-thiazolyl)-1,2-thiazino[5,6-b]indole-3-carboxamide-1,1-dioxide] | 100 | 97 | 0 | 0 | 0 | 42 | – | – | – | – | – |
| Cc1nc(NC(=O)C2=C(O)c3c(c4ccccc4n3C)S(=O)(=O)N2C)sc1C [C, 2,5-dihydro-2,5-dimethyl-N-(4,5-dimethyl-2-thiazolyl)-4-hydroxy-1,2-thiazino[5,6-b]indole-3-carboxamide-1,1-dioxide] | 89 | 82 | – | – | – | – | – | – | – | – | – |
| Cc1cccc(NC(=O)C2=C(O)c3c(c4ccccc4n3C)S(=O)(=O)N2C)n1 [D, 2,5-dihydro-2,5-dimethyl-4-hydroxy-N-(6-methyl-2-pyridyl)-1,2-thiazino[5,6-b]indole-3-carboxamide-1,1-dioxide] | – | – | 0 | 0 | 0 | – | 86 | 60 | – | – | – |
| CN1C(C(=O)Nc2nccs2)=C(O)c2c(c3cc(Cl)ccc3n2C)S1(=O)=O [E, 8-chloro-2,5-dihydro-2,5-dimethyl-4-hydroxy-N-(2-thiazolyl)-1,2-thiazino[5,6-b]indole-3-carboxamide-1,1-dioxide] | – | – | 0 | 0 | 0 | – | – | – | 100 | 86 | 27 |
| COc1ccc2c(c1)c1c(n2C)C(O)=C(C(=O)Nc2ccccn2)N(C)S1(=O)=O [F, 2,5-dihydro-2,5-dimethyl-4-hydroxy-8-methoxy-N-(2-pyridyl)-1,2-thiazino[5,6-b]indole-3-carboxamide-1,1-dioxide] | – | – | – | – | – | – | – | – | 85 | 43 | – |
